Measured values as given in patent US10457710B2, “Antimicrobial peptides, their variants and uses” (priority 2015, dated 2019).
Where a SMILES comes first, the peptide text is derived from it. [ ]: non-standard residue; d: D form.

Experiments:
Type in all cases: cell-based
[1] = tested on: C. quillermondiae; test: MIC, clinical yeast strains; parameters: Minimum inhibitory concentration: unit: μg/ml; conditions: C. quillermondiae clinical yeast strain 1
Method in brief: (§1)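 For A. johnsonii, Mueller Hinton broth; for the clinical yeasts, Potato dextrose broth. In both, 5.0×10^5 cfu/ml was exposed to peptide over 0.125–128 μg/ml for 20–24 h at 37 °C, and MIC was read as the lowest concentration showing no visual growth.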

[2] = tested on: Candida albicans; test: MIC, clinical yeast strains
Method in brief: as §1

[3] = tested on: C. parapsilosis; test: MIC, clinical yeast strains
Method in brief: as §1

[4] = tested on: C. glabrata; test: MIC, clinical yeast strains
Method in brief: as §1

[5] = tested on: clinical strains of E. cloacae; test: MIC, microdilution, clinical strains; conditions: 0.02% BSA, 0.2% acetic acid
Method: (§2) Minimum inhibition concetrations (MICs) were determined against Escherichia coli (ATCC 25922), Staphylococcus aureus (ATCC 25923), Klebsiella pneumoniae (ATCC 10031) and Pseudomonas aeruginosa (ATCC 27853). Also clinical strains of E. coli, K. pneumoniae, E. cloacae, P. aeruginosa, Serratia marcescens, Proteus mirabilis, S. pneumoniae, Acinetobacter baumannii, A. johnsonii and S. aureus were used for MICs assays. Additionally, clinical strains of yeast including Candida albicans, C. glabrata, C. parapsilosis and C. quillermondiae were used. The susceptibility of these microorganisms to Chain peptides were determined using micro broth dilution assay. Colonies of the respective microorganism from Muller Hinton (MH) agar plates incubated overnight were suspended in MH broth media and final concentration of microorganism was adjusted to 5.0×10^5 cfu/ml. An aliquot of 10 μl of each Chain peptide, or gentamicin, tetracycline as reference antibiotics were added in differing concentrations along with 90 μl of bacterial suspension to 96 well polypropylene plates and incubated at 37° C. for 20 to 24 hours. Concentrations of Chain peptides and reference antibiotics ranged from 0.125 to 128 μg/ml and the MICs were recorded as the lowest concentration with no visual growth of bacteria. Similarly, antifungal MICs were tested in Potato dextrose broth.
(§3) Clinical strains of yeasts including Candida albicans, C. glabrata, C. parapsilosis and C. quillermondiae were also tested with the 12 Chain peptides. The minimum inhibitory concentration (MICs) varied between these peptides and are presented in Tables 4a, 4b, 4c and 5a, 5b, 5c. Peptides Chain 105, 201 and 308 are broad spectrum antimicrobials with MICs between 0.5-32 μg/ml against all the bacteria and yeasts tested, except Serratia marcescens and Proteus mirabilis, against which the MICs were between 64-128 μg/ml. Peptide Chain 306 has narrow spectrum activity against E. coli at 1 μg/ml and for the rest of the bacterial strains at >32 μg/ml (FIG. 10c).

[6] = tested on: clinical strains of S. pneumoniae; test: MIC, microdilution, clinical strains; conditions: 0.02% BSA, 0.2% acetic acid
Method: as §2, §3

[7] = tested on: clinical strains of Serratia marcescens; test: MIC, microdilution, clinical strains; conditions: 0.02% BSA, 0.2% acetic acid
Method: as §2, §3

[8] = tested on: clinical strains of P. aeruginosa; test: MIC, microdilution, clinical strains; conditions: 0.02% BSA, 0.2% acetic acid
Method: as §2, §3

[9] = tested on: clinical strains of S. aureus; test: MIC, microdilution, clinical strains; conditions: 0.02% BSA, 0.2% acetic acid
Method: as §2, §3

[10] = tested on: clinical strains of K. pneumoniae; test: MIC, microdilution, clinical strains; conditions: 0.02% BSA, 0.2% acetic acid
Method: as §2, §3

[11] = tested on: clinical strains of Proteus mirabilis; test: MIC, microdilution, clinical strains; conditions: 0.02% BSA, 0.2% acetic acid
Method: as §2, §3

[12] = tested on: clinical strains of E. coli; test: MIC, microdilution, clinical strains; conditions: microdilution, Muller Hinton broth-cation adjusted, 0.02% BSA, 0.2% acetic acid
Method: as §2, §3

CC(C)C[C@@H](NC(=O)[C@@H](CCCCN)NC(=O)[C@@H](CCCCN)NC(=O)[C@@H](Cc1ccccc1)NC(=O)[C@@H](CC(C)C)NC(=O)[C@@H](Cc1c[nH]c2ccccc12)NC(=O)[C@@H](CCCNC(=N)N)NC(=O)[C@@H](Cc1c[nH]c2ccccc12)NC(=O)[C@@H](CCCCN)NC(=O)[C@@H](CCCNC(=N)N)NC(=O)[C@H](N)CCCCN)C(=O)O [Chain310D] (H-[dK][dR][dK][dW][dR][dW][dL][dF][dK][dK][dL]-OH)
Minimum inhibitory concentration [1]: 8 | Minimum inhibitory concentration ([2]; Candida albicans clinical yeast strain 1): 16 | Minimum inhibitory concentration ([2]; Candida albicans clinical yeast strain 2): 16 | Minimum inhibitory concentration ([2]; Candida albicans clinical yeast strain 3): 16 | Minimum inhibitory concentration ([2]; Candida albicans clinical yeast strain 4): 16 | Minimum inhibitory concentration ([2]; Candida albicans clinical yeast strain 5): 16 | Minimum inhibitory concentration ([3]; C. parapsilosis clinical yeast strain 1): 64 | Minimum inhibitory concentration ([3]; C. parapsilosis clinical yeast strain 2): 64 | Minimum inhibitory concentration ([3]; C. parapsilosis clinical yeast strain 3): 64 | Minimum inhibitory concentration ([3]; C. parapsilosis clinical yeast strain 4): 16 | Minimum inhibitory concentration ([4]; C. glabrata clinical yeast strain 1): 16 | Minimum inhibitory concentration ([4]; C. glabrata clinical yeast strain 2): 16 | Minimum inhibitory concentration ([4]; C. glabrata clinical yeast strain 3): 128 | Minimum inhibitory concentration ([4]; C. glabrata clinical yeast strain 4): 128 | Minimum inhibitory concentration ([5]; Enterobacter cloacae strain 1, Muller Hinton broth-cation adjusted): 128 | Minimum inhibitory concentration ([5]; Enterobacter cloacae strain 2, Muller Hinton broth-cation adjusted): 64 | Minimum inhibitory concentration ([5]; Enterobacter cloacae strain 3, Muller Hinton broth-cation adjusted): 16 | Minimum inhibitory concentration ([5]; Enterobacter cloacae strain 4, Muller Hinton broth-cation adjusted): 8 | Minimum inhibitory concentration ([5]; Enterobacter cloacae strain 5, Muller Hinton broth-cation adjusted): 16 | Minimum inhibitory concentration ([6]; Streptococcus pneumoniae strain 1, Muller Hinton broth-cation adjusted): 128 | Minimum inhibitory concentration ([6]; Streptococcus pneumoniae strain 2, Muller Hinton broth-cation adjusted): 128 | Minimum inhibitory concentration ([6]; Streptococcus pneumoniae strain 3, Muller Hinton broth-cation adjusted): 128 | Minimum inhibitory concentration ([6]; Streptococcus pneumoniae strain 4, Muller Hinton broth-cation adjusted): 128 | Minimum inhibitory concentration ([6]; Streptococcus pneumoniae strain 5, Muller Hinton broth-cation adjusted): 64 | Minimum inhibitory concentration ([7]; Serratia marcescens strain 1, Muller Hinton broth-cation adjusted): >128 | Minimum inhibitory concentration ([7]; Serratia marcescens strain 2, Muller Hinton broth-cation adjusted): >128 | Minimum inhibitory concentration ([7]; Serratia marcescens strain 3, Muller Hinton broth-cation adjusted): >128 | Minimum inhibitory concentration ([7]; Serratia marcescens strain 4, Muller Hinton broth-cation adjusted): >128 | Minimum inhibitory concentration ([7]; Serratia marcescens strain 5, Muller Hinton broth-cation adjusted): >128 | Minimum inhibitory concentration ([8]; Pseudomonas aeruginosa strain 1, Muller Hinton broth-cation adjusted): 8 | Minimum inhibitory concentration ([8]; Pseudomonas aeruginosa strain 2, Muller Hinton broth-cation adjusted): 16 | Minimum inhibitory concentration ([8]; Pseudomonas aeruginosa strain 3, Muller Hinton broth-cation adjusted): 16 | Minimum inhibitory concentration ([8]; Pseudomonas aeruginosa strain 4, Muller Hinton broth-cation adjusted): 8 | Minimum inhibitory concentration ([8]; Pseudomonas aeruginosa strain 5, Muller Hinton broth-cation adjusted): 4 | Minimum inhibitory concentration ([9]; Staphylococcus aureus strain 1, Muller Hinton broth-cation adjusted): 8 | Minimum inhibitory concentration ([9]; Staphylococcus aureus strain 2, Muller Hinton broth-cation adjusted): 16 | Minimum inhibitory concentration ([9]; Staphylococcus aureus strain 3, Muller Hinton broth-cation adjusted): 8 | Minimum inhibitory concentration ([9]; Staphylococcus aureus strain 4, Muller Hinton broth-cation adjusted): 8 | Minimum inhibitory concentration ([9]; Staphylococcus aureus strain 5, Muller Hinton broth-cation adjusted): 4 | Minimum inhibitory concentration ([10]; Klebsiella pneumoniae strain 1, Muller Hinton broth-cation adjusted): 64 | Minimum inhibitory concentration ([10]; Klebsiella pneumoniae strain 2, Muller Hinton broth-cation adjusted): 64 | Minimum inhibitory concentration ([10]; Klebsiella pneumoniae strain 3, Muller Hinton broth-cation adjusted): 128 | Minimum inhibitory concentration ([10]; Klebsiella pneumoniae strain 4, Muller Hinton broth-cation adjusted): 64 | Minimum inhibitory concentration ([10]; Klebsiella pneumoniae strain 5, Muller Hinton broth-cation adjusted): 32 | Minimum inhibitory concentration ([11]; Proteus mirabilis strain 1, Muller Hinton broth-cation adjusted): >128 | Minimum inhibitory concentration ([11]; Proteus mirabilis strain 2, Muller Hinton broth-cation adjusted): >128 | Minimum inhibitory concentration ([11]; Proteus mirabilis strain 3, Muller Hinton broth-cation adjusted): >128 | Minimum inhibitory concentration ([11]; Proteus mirabilis strain 4, Muller Hinton broth-cation adjusted): >128 | Minimum inhibitory concentration ([11]; Proteus mirabilis strain 5, Muller Hinton broth-cation adjusted): >128 | Minimum inhibitory concentration ([12]; Escherichia coli strain 1): 4 | Minimum inhibitory concentration ([12]; Escherichia coli strain 2): 32 | Minimum inhibitory concentration ([12]; Escherichia coli strain 3): 16 | Minimum inhibitory concentration ([12]; Escherichia coli strain 4): 16 | Minimum inhibitory concentration ([12]; Escherichia coli strain 5): 16
